Experiments:
Xanthine oxidase (XOD) [1] = molecular target: T1, Xanthine oxidase (XOD); assay: UV assay of uric acid formation at […] nm, test method A (inhibitor preincubated with enzyme, started by xanthine); assay type: biochemical; conditions: xanthine substrate, sodium pyrophosphate buffer pH 7.5, 37 °C, other methods (B; C, inhibitor added to the running reaction with superoxide) also printed in the row, read-out: IC50 ^[a]/μmol L^-1
T1 construct: gene XDH; described in the introduction as a 290 kDa homodimer of mammals; the high specific activity could also fit a microbial enzyme

Xanthine oxidase (XOD) [2] = molecular target: T1, Xanthine oxidase (XOD); assay: UV assay of uric acid formation at […] nm, test method C (inhibitor added to running reaction after […] min, superoxide present); assay type: biochemical; conditions: xanthine substrate, sodium pyrophosphate buffer pH 7.5, 37 °C, unreliable: compound may be oxidised to myricetin by superoxide, no IC50 reached in test methods A and B

IC50 (Xanthine oxidase (XOD) [1]) | IC50 ^[c]/μmol L^-1 (Xanthine oxidase (XOD) [2]) | Compound
5 µM |  | O=c1c(O)c(-c2cc(O)c(O)c(O)c2)oc2cc(O)cc(O)c12 [Myricetin]
 | 20.96 µM | O=C1c2c(O)cc(O)cc2O[C@H](c2cc(O)c(O)c(O)c2)[C@H]1O [Dihydromyricetin]
4.34 µM |  | O=c1cc(-c2ccc(O)c(O)c2)oc2cc(O)cc(O)c12 [Luteolin]
